Results: ChEMBL document CHEMBL6078713, “Synthesis and mechanistic studies of 4-aminoquinoline-Isatin molecular hybrids and Schiff's bases as promising antimicrobial agents” (Eur J Med Chem, 2025)
Converted amounts (≈) assume the structure as drawn. The source made the active and inactive calls. The rule behind the calls is not given here.

Columns and labels:
Escherichia coli [1] = assay: Antibacterial activity against Escherichia coli MTCC 443 assessed as diameter of zone of inhibition at 500 ug/ml by agar disk diffusion method; type: functional; conditions: read-out: DIZ
Bacillus subtilis [2] = assay: Antibacterial activity against Bacillus subtilis MTCC 736 assessed as diameter of zone of inhibition at 500 ug/ml by agar disk diffusion method; type: functional; conditions: read-out: DIZ
Staphylococcus aureus [3] = assay: Antibacterial activity against Staphylococcus aureus MTCC 902 assessed as diameter of zone of inhibition at 500 ug/ml by agar disk diffusion method; type: functional; conditions: read-out: DIZ
Pseudomonas aeruginosa [4] = assay: Antibacterial activity against Pseudomonas aeruginosa MTCC 2453 assessed as diameter of zone of inhibition at 500 ug/ml by agar disk diffusion method; type: functional; conditions: read-out: DIZ
Escherichia coli [5] = assay: Antibacterial activity against Escherichia coli MTCC 443 assessed as inhibition of bacterial growth incubated overnight by serial dilution based spectrophotometer; type: functional
Enterococcus faecalis [6] = assay: Antibacterial activity against Enterococcus faecalis MTCC 439 assessed as inhibition of bacterial growth incubated overnight by serial dilution based spectrophotometer; type: functional
Bacillus subtilis [7] = assay: Antibacterial activity against Bacillus subtilis MTCC 736 assessed as inhibition of bacterial growth incubated overnight by serial dilution based spectrophotometer; type: functional
Staphylococcus aureus [8] = assay: Antibacterial activity against Staphylococcus aureus MTCC 902 assessed as inhibition of bacterial growth incubated overnight by serial dilution based spectrophotometer; type: functional
Pseudomonas aeruginosa [9] = assay: Antibacterial activity against Pseudomonas aeruginosa MTCC 2453 assessed as inhibition of bacterial growth incubated overnight by serial dilution based spectrophotometer; type: functional
Salmonella typhi [10] = assay: Antibacterial activity against Salmonella typhi assessed as inhibition of bacterial growth incubated overnight by serial dilution based spectrophotometer; type: functional, Salmonella enterica subsp. enterica serovar Typhi; conditions: Salmonella enterica
Escherichia coli [11] = assay: Bactericidal activity against Escherichia coli MTCC 443 assessed as inhibition of bacterial growth incubated overnight; type: functional
Bacillus subtilis [12] = assay: Bactericidal activity against Bacillus subtilis MTCC 736 assessed as inhibition of bacterial growth incubated overnight; type: functional
Pseudomonas aeruginosa [13] = assay: Bactericidal activity against Pseudomonas aeruginosa MTCC 2453 assessed as inhibition of bacterial growth incubated overnight; type: functional
Bacillus subtilis [14] = assay: Ratio of MBC for antibacterial activity against Bacillus subtilis MTCC 736 to MIC for bactericidal activity against Bacillus subtilis MTCC 736; type: functional
Pseudomonas aeruginosa [15] = assay: Ratio of MBC for antibacterial activity against Pseudomonas aeruginosa MTCC 2453 to MIC for bactericidal activity against Pseudomonas aeruginosa MTCC 2453; type: functional
Escherichia coli [16] = assay: Antibacterial activity against Escherichia coli MTCC 443 assessed as diameter of zone of inhibition at 0.5 times MIC incubated overnight by disk diffusion method; type: functional
Enterococcus faecalis [17] = assay: Antibacterial activity against Enterococcus faecalis MTCC 439 assessed as diameter of zone of inhibition at 0.5 times MIC incubated overnight by disk diffusion method; type: functional
Bacillus subtilis [18] = assay: Antibacterial activity against Bacillus subtilis MTCC 736 assessed as diameter of zone of inhibition at 0.5 times MIC incubated overnight by disk diffusion method; type: functional
Staphylococcus aureus [19] = assay: Antibacterial activity against Staphylococcus aureus MTCC 902 assessed as diameter of zone of inhibition at 0.5 times MIC incubated overnight by disk diffusion method; type: functional
Pseudomonas aeruginosa [20] = assay: Antibacterial activity against Pseudomonas aeruginosa MTCC 2453 assessed as diameter of zone of inhibition at 0.5 times MIC incubated overnight by disk diffusion method; type: functional
Escherichia coli [21] = assay: Antibacterial activity against Escherichia coli MTCC 443 assessed as diameter of zone of inhibition at MIC incubated overnight by disk diffusion method; type: functional
Enterococcus faecalis [22] = assay: Antibacterial activity against Enterococcus faecalis MTCC 439 assessed as diameter of zone of inhibition at MIC incubated overnight by disk diffusion method; type: functional
Bacillus subtilis [23] = assay: Antibacterial activity against Bacillus subtilis MTCC 736 assessed as diameter of zone of inhibition at MIC incubated overnight by disk diffusion method; type: functional
Staphylococcus aureus [24] = assay: Antibacterial activity against Staphylococcus aureus MTCC 902 assessed as diameter of zone of inhibition at MIC incubated overnight by disk diffusion method; type: functional
Pseudomonas aeruginosa [25] = assay: Antibacterial activity against Pseudomonas aeruginosa MTCC 2453 assessed as diameter of zone of inhibition at MIC incubated overnight by disk diffusion method; type: functional
Salmonella typhi [26] = assay: Antibacterial activity against Salmonella typhi assessed as diameter of zone of inhibition at MIC incubated overnight by disk diffusion method; type: functional, Salmonella enterica subsp. enterica serovar Typhi
Escherichia coli [27] = assay: Antibacterial activity against Escherichia coli MTCC 443 assessed as diameter of zone of inhibition at 2 times MIC incubated overnight by disk diffusion method; type: functional
Enterococcus faecalis [28] = assay: Antibacterial activity against Enterococcus faecalis MTCC 439 assessed as diameter of zone of inhibition at 2 times MIC incubated overnight by disk diffusion method; type: functional
Bacillus subtilis [29] = assay: Antibacterial activity against Bacillus subtilis MTCC 736 assessed as diameter of zone of inhibition at 2 times MIC incubated overnight by disk diffusion method; type: functional
Staphylococcus aureus [30] = assay: Antibacterial activity against Staphylococcus aureus MTCC 902 assessed as diameter of zone of inhibition at 2 times MIC incubated overnight by disk diffusion method; type: functional
Pseudomonas aeruginosa [31] = assay: Antibacterial activity against Pseudomonas aeruginosa MTCC 2453 assessed as diameter of zone of inhibition at 2 times MIC incubated overnight by disk diffusion method; type: functional
Salmonella typhi [32] = assay: Antibacterial activity against Salmonella typhi assessed as diameter of zone of inhibition at 2 times MIC incubated overnight by disk diffusion method; type: functional, Salmonella enterica subsp. enterica serovar Typhi
Escherichia coli [33] = assay: Synergistic antibacterial activity against Escherichia coli MTCC 443 assessed as inhibition of bacterial growth incubated overnight in presence of ciprofloxacin by serial dilution based spectrophotometer; type: functional
Bacillus subtilis [34] = assay: Synergistic antibacterial activity against Bacillus subtilis MTCC 736 assessed as inhibition of bacterial growth incubated overnight in presence of ciprofloxacin by serial dilution based spectrophotometer; type: functional
Pseudomonas aeruginosa [35] = assay: Synergistic antibacterial activity against Pseudomonas aeruginosa MTCC 2453 assessed as inhibition of bacterial growth incubated overnight in presence of ciprofloxacin by serial dilution based spectrophotometer; type: functional
Escherichia coli [36] = assay: Synergistic antibacterial activity against Escherichia coli MTCC 443 assessed as fractional inhibitory concentration index incubated overnight in presence of ciprofloxacin by microdilution checkerboard assay; type: functional
Bacillus subtilis [37] = assay: Synergistic antibacterial activity against Bacillus subtilis MTCC 736 assessed as fractional inhibitory concentration index incubated overnight in presence of ciprofloxacin by microdilution checkerboard assay; type: functional
Pseudomonas aeruginosa [38] = assay: Synergistic antibacterial activity against Pseudomonas aeruginosa MTCC 2453 assessed as fractional inhibitory concentration index incubated overnight in presence of ciprofloxacin by microdilution checkerboard assay; type: functional
Escherichia coli [39] = assay: Bacteriostatic activity against Escherichia coli MTCC 443 assessed as reduction in bacterial growth at 2 times MIC measured upto 10 hrs by absorbance based assay; type: functional, organism-based
Staphylococcus aureus [40] = assay: Bacteriostatic activity against Staphylococcus aureus MTCC 902 assessed as reduction in bacterial growth at 2 times MIC measured upto 10 hrs by absorbance based assay; type: functional, organism-based
Escherichia coli [41] = assay: Bacteriostatic activity against Escherichia coli MTCC 443 assessed as reduction in log phase of bacterial growth at 0.5 to 1 times MIC measured upto 24 hrs by absorbance based assay; type: functional, organism-based
Staphylococcus aureus [42] = assay: Bacteriostatic activity against Staphylococcus aureus MTCC 902 assessed as lag phase of bacterial growth at 1 times MIC measured upto 24 hrs by absorbance based assay; type: functional, organism-based
Staphylococcus aureus [43] = assay: Bacteriostatic activity against Staphylococcus aureus MTCC 902 assessed as lag phase of bacterial growth at 0.5 times MIC measured upto 24 hrs by absorbance based assay; type: functional, organism-based
Enterococcus faecalis [44] = assay: Antibacterial activity against Enterococcus faecalis assessed as inhibition of bacterial growth; type: functional

O=C1Nc2cc(Cl)ccc2/C1=N/CCNc1ccnc2cc(Cl)ccc12
zone of inhibition at 500 µg/mL (Escherichia coli [1]): 12 mm | zone of inhibition at 500 µg/mL (Bacillus subtilis [2]): 11 mm | zone of inhibition at 500 µg/mL (Staphylococcus aureus [3]): 8 mm | zone of inhibition at 500 µg/mL (Pseudomonas aeruginosa [4]): 11 mm | MIC (Escherichia coli [5]): 256 µg/mL (≈ 664 µM) | MIC (Enterococcus faecalis [6]): > 512 µg/mL | MIC (Bacillus subtilis [7]): 256 µg/mL (≈ 664 µM) | MIC (Staphylococcus aureus [8]): > 512 µg/mL | MIC (Pseudomonas aeruginosa [9]): 128 µg/mL (≈ 332 µM) | MIC (Salmonella typhi [10]): > 512 µg/mL | MBC (Escherichia coli [11]): > 512 µg/mL | MBC (Bacillus subtilis [12]): 256 µg/mL (≈ 664 µM) | MBC (Pseudomonas aeruginosa [13]): 256 µg/mL (≈ 664 µM) | Ratio (Bacillus subtilis [14]): 1 | Ratio (Pseudomonas aeruginosa [15]): 2 | diameter of the inhibition zone (DIZ) (Escherichia coli [16]): 9 mm | diameter of the inhibition zone (DIZ) (Enterococcus faecalis [17]): 8 mm | diameter of the inhibition zone (DIZ) (Bacillus subtilis [18]): 8 mm | diameter of the inhibition zone (DIZ) (Staphylococcus aureus [19]): 8 mm | diameter of the inhibition zone (DIZ) (Pseudomonas aeruginosa [20]): 8 mm | diameter of the inhibition zone (DIZ) (Escherichia coli [21]): 9 mm | diameter of the inhibition zone (DIZ) (Enterococcus faecalis [22]): 8 mm | diameter of the inhibition zone (DIZ) (Bacillus subtilis [23]): 11 mm | diameter of the inhibition zone (DIZ) (Staphylococcus aureus [24]): 8 mm | diameter of the inhibition zone (DIZ) (Pseudomonas aeruginosa [25]): 9 mm | diameter of the inhibition zone (DIZ) (Salmonella typhi [26]): 7 mm | diameter of the inhibition zone (DIZ) (Escherichia coli [27]): 11 mm | diameter of the inhibition zone (DIZ) (Enterococcus faecalis [28]): 8 mm | diameter of the inhibition zone (DIZ) (Bacillus subtilis [29]): 10 mm | diameter of the inhibition zone (DIZ) (Staphylococcus aureus [30]): 8 mm | diameter of the inhibition zone (DIZ) (Pseudomonas aeruginosa [31]): 9 mm | diameter of the inhibition zone (DIZ) (Salmonella typhi [32]): 7 mm | MIC (Escherichia coli [33]): 16 µg/mL | MIC (Bacillus subtilis [34]): 64 µg/mL | MIC (Pseudomonas aeruginosa [35]): 32 µg/mL | fractional inhibitory concentration index (FICI) (Escherichia coli [36]): 0.125 | fractional inhibitory concentration index (FICI) (Bacillus subtilis [37]): 0.75 | fractional inhibitory concentration index (FICI) (Pseudomonas aeruginosa [38]): 1.25 | Activity (Escherichia coli [39]): Active | Activity (Staphylococcus aureus [40]): Active | Activity (Escherichia coli [41]): Active | Activity (Staphylococcus aureus [42]): Active | Activity (Staphylococcus aureus [43]): inactive

O=C1Nc2cc(Cl)c(F)cc2/C1=N\NC(=O)c1cc(-c2cccc(Br)c2)n[nH]1
MIC (Enterococcus faecalis [44]): 8 µg/mL (≈ 17.3 µM)
